{"source": "paper PMC11079024", "about": "“Identification of a family of species-selective complex I inhibitors as potential anthelmintics” (Nature Communications, 2024)", "key": {"HEK293 cells": {"test_system": "HEK293 cells", "details": "HEK293 cells"}, "[1]": {"test_system": "C. elegans complex IV (cytochrome C oxidase)", "assay": "In vitro complex IV activity assay, C. elegans mitochondria", "type": "biochemical, Caenorhabditis elegans", "method_in_brief": "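Cytochrome C oxidase activity read spectrophotometrically at 550 nm (30 s intervals, 15 min) as oxidation of freshly DTT-reduced CytC. Mitochondria (0.2 mg/mL) came from adult worms of six C. elegans strains grown at 20 °C. Rates were taken from initial linear phase and normalised to solvent-control wells.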"}, "[2]": {"test_system": "C. elegans complex III (decylubiquinol-cytochrome C reductase)", "assay": "In vitro complex III activity assay, C. elegans mitochondria", "type": "biochemical, Caenorhabditis elegans", "method_in_brief": "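Mitochondria were isolated from adult C. elegans by bead-beating and differential centrifugation, then used at 0.2 mg/mL protein. Antimycin A-sensitive complex III activity was followed as decylubiquinol-driven cytochrome C reduction at 550 nm every 30 s for 15 min. Initial linear slopes were expressed as percent of solvent control.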"}, "[3]": {"biological_target": "C. elegans complex II (succinate dehydrogenase) (Caenorhabditis elegans, UniProt O62215+P41956+Q09545)", "sequence (P41956 30-182)": "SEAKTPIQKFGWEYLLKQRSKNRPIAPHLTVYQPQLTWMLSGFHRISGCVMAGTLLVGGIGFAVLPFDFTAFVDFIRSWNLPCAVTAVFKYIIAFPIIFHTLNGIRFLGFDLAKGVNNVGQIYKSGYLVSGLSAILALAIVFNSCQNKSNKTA", "sequence (Q09545 22-298)": "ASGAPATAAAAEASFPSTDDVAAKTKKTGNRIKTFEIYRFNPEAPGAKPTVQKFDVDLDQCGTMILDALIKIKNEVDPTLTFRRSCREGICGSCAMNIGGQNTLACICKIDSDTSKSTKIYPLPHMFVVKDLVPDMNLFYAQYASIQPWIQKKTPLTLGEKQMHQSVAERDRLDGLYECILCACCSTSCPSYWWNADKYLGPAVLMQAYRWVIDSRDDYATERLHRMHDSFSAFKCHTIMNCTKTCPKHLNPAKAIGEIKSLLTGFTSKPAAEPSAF", "sequence (Q09508 32-646, further chain)": "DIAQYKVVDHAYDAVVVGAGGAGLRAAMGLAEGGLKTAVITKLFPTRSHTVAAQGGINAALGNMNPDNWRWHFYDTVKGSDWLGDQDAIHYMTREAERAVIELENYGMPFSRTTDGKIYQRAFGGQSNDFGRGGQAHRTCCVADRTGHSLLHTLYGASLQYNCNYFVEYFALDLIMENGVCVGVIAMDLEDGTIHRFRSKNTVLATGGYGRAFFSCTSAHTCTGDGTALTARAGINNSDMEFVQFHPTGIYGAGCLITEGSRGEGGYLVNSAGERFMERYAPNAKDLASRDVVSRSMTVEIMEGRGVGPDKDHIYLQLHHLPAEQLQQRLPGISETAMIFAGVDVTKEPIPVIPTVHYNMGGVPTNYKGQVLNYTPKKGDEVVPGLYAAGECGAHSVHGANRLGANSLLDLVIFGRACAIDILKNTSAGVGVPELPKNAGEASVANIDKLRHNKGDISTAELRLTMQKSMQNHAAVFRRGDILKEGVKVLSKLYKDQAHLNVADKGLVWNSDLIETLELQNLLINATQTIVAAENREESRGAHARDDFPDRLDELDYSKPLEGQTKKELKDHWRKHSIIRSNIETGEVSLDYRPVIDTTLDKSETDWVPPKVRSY", "sequence (O62215 31-145)": "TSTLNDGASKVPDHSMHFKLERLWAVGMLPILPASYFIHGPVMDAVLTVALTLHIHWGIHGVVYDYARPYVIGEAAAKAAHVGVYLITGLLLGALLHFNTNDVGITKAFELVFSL", "assay": "In vitro complex II activity assay, C. elegans mitochondria", "type": "biochemical", "method_in_brief": "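Mitochondria isolated from adult C. elegans were diluted to 0.2 mg/mL protein and assayed for complex II by the DCIP-coupled method. A600 was read every 30 s over 15 min, with initial linear slope expressed as percent of solvent control. Screening was at 100 μM (≥3 biological replicates), followed by dose-response.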"}, "[4]": {"test_system": "P. hermaphrodita complex I", "assay": "In vitro complex I activity assay, P. hermaphrodita mitochondria", "type": "biochemical, Phasmarhabditis hermaphrodita", "details": "for IC50: purified mitochondria; for in vitro complex I activity relative to solvent control: P. hermaphrodita mitochondria", "description": "Mitochondria were isolated from the following free-living nematode strains: C. elegans—N2, CB3474, ECA882, ECA917, ECA1075, ECA1080; C. briggsae—AF16; P. pacificus—PS312; and P. hermaphrodita—B178. With the exception of the P. hermaphrodita strain B178, adult worms of each strain were grown in bulk through liquid culture to obtain mitochondria in sufficient quantities. Due to poor growth in liquid media, mixed stage populations of P. hermaphrodita were washed off and collected from NGM plates seeded with OP50. The isolation of mitochondria from all free-living nematode strains followed the protocol previously outlined in Burns et al.[24]. In brief, a 1 L saturated culture of E. coli HB101 was concentrated 20-fold in 50 mL complete S-medium. ~500,000 L1 worms synchronized from an embryo preparation performed the day prior were added to the S-media/HB101 suspension and grown to adulthood over the course of 3.5 days at 20 °C with shaking at 165 rpm. Following growth, worms were collected in 10 ×15 mL conical tubes and washed 7 times in M9 buffer. Worm suspensions were then combined into a single 15 mL conical tube and diluted to a final volume of 15 mL with M9 buffer. 1 mL aliquots of worm suspension were then distributed to 15 × 1.5 mL screw-cap microcentrifuge tubes and were pelleted at 500 g for 1 min. Excess M9 was aspirated without disturbing the worm pellet. 600 μL ice-cold isolate buffer A (250 mM sucrose, 10 mM Tris (pH 7.5), 1 mM EDTA, 1 mM PMSF (freshly prepared)) and 300 μL cold glass beads were then added to each tube. Tubes were incubated on ice for 10 min, and the worms were then lysed by bead beating (6 x 30 s, with 1 min cooling intervals). Tubes containing worm lysate were centrifuged at 1,000 g for 10 min at 4 °C and the supernatant was transferred to 15 new microcentrifuge tubes on ice. The tubes were centrifuged a second time at 1,000 g for 10 min at 4 °C and the supernatant was once again transferred to 15 new microcentrifuge tubes on ice. These tubes were then centrifuged at 16,000 g for 10 min at 4 °C. The resulting mitochondrial pellet was washed twice by re-suspension in 300 μL of ice-cold isolate buffer B (250 mM sucrose, 10 mM Tris (pH 7.5), 1 mM EDTA). Following the final wash, isolation buffer was aspirated from each tube and the pellets were flash-frozen in ethanol/dry ice and stored at −80 °C until needed.\nThe enzymatic activities of individual ETC complexes (I-IV) were assessed spectrophotometrically in isolated mitochondria using a Varioskan LUX Multimode plate reader (ThermoFisher Scientific). Mitochondrial pellets previously isolated were thawed on ice and resuspended in ice-cold isolation buffer (250 mM sucrose, 10 mM Tris (pH 7.5), 1 mM EDTA). The BCA assay (Walker, 1994) was used to quantify the protein concentration of mitochondria suspensions; solutions were diluted to a concentration of 0.2 mg/mL for use in all assays. For the complex I assay, mitochondria pellets were freeze-thawed on ice three times to increase enzyme accessibility. […] 20 μL mitochondria suspension was then added/mixed with a pipette to initiate the reaction. Immediately following the addition of mitochondria, absorbance was measured (complex I and II: 600 nm; complex III and IV: 550 nm) in 30 s intervals over 15 min. Enzymatic activity was determined in each reaction by plotting absorbance versus time and calculating the slope of the curve during the initial linear phase of the reaction. […] Percent activity of each complex was calculated by dividing the enzyme-specific activity of each well by the enzyme-specific activity of the corresponding solvent controls.\nChemical solutions were prepared in complex I assay buffer composed of 25 mM KPi buffer (pH 7.5), 3 mg/mL bovine serum albumin (BSA), 80 μM NADH, 60 μM decylubiquinone, 160 μM DCIP, 2 μM antimycin A and 2 mM KCN. […]"}, "[5]": {"details": "100 µM compound, relative to solvent control, mean (SEM)"}, "[6]": {"details": "100 μM of NPD compound, C. elegans mitochondria, individual biological replicates"}, "[7]": {"details": "100 μM of NPD compound, C. elegans mitochondria, mean of four biological replicates"}}, "note": "Where “and” joins values, the source holds several entries; their conditions need not be identical. Identical values can stand only once. Like-named read-outs stand apart in the source and are kept apart here.", "data": [{"smiles": "CC(C)Cc1ccc(C(C)c2nc3ccccc3n2C)cc1", "note": "(centres unmarked) [NPD8790]", "values": [{"measurement": "toxicity against mammalian cells", "setting": "HEK293 cells", "value": "low toxicity"}, {"measurement": "% Activity Complex IV", "setting": "[1]; [5]", "value": "79.84 (1.34) %"}, {"measurement": "Percent in vitro activity, Complex IV (single replicate Rep1-Rep4)", "setting": "[1]; [6]", "value": "83.143% and 80.952% and 83.287% and 71.964%"}, {"measurement": "Percent in vitro activity, Complex IV (Mean)", "setting": "[1]; [7]", "value": 79.837, "unit": "%"}, {"measurement": "% Activity Complex III", "setting": "[2]; [5]", "value": "63.54 (0.90) %"}, {"measurement": "Percent in vitro activity, Complex III (single replicate Rep1-Rep4)", "setting": "[2]; [6]", "value": "58.669% and 65.835% and 63.074% and 66.590%"}, {"measurement": "Percent in vitro activity, Complex III (Mean)", "setting": "[2]; [7]", "value": 63.542, "unit": "%"}, {"measurement": "activity at 100 µM", "setting": "[3]; 100 µM compound, relative to solvent control, mean (SEM), read-out: % Activity Complex II", "value": 99.7, "unit": "%"}, {"measurement": "Percent in vitro activity, Complex II (single replicate Rep1-Rep4)", "setting": "[3]; 100 μM of NPD compound, C. elegans mitochondria, individual biological replicates, 100 µM", "value": "81.090% and 92.425% and 103.697% and 121.642%"}, {"measurement": "activity at 100 µM", "setting": "[3]; 100 μM of NPD compound, C. elegans mitochondria, mean of four biological replicates, read-out: Percent in vitro activity, Complex II (Mean)", "value": 99.7, "unit": "%"}, {"measurement": "IC50", "setting": "[4]", "value": 1100, "unit": "nM"}]}, {"smiles": "Cc1nc2ccccc2n1Cc1ccc(Cl)cc1", "note": "[STK697993]", "values": [{"measurement": "in vitro complex I activity relative to solvent control", "setting": "[4]; 0.0001 µM, Mean", "value": 89.612, "unit": "%"}, {"measurement": "in vitro complex I activity relative to solvent control", "setting": "[4]; 0.0001 µM, single replicate", "value": "93.319% and 105.139% and 70.379%"}, {"measurement": "in vitro complex I activity relative to solvent control", "setting": "[4]; 0.0005 µM, Mean", "value": 95.634, "unit": "%"}, {"measurement": "in vitro complex I activity relative to solvent control", "setting": "[4]; 0.0005 µM, single replicate", "value": "119.766% and 92.855% and 74.280%"}, {"measurement": "in vitro complex I activity relative to solvent control", "setting": "[4]; 0.001 µM, Mean", "value": 90.469, "unit": "%"}, {"measurement": "in vitro complex I activity relative to solvent control", "setting": "[4]; 0.001 µM, single replicate", "value": "96.266% and 129.304% and 45.836%"}, {"measurement": "in vitro complex I activity relative to solvent control", "setting": "[4]; 0.0025 µM, Mean", "value": 83.278, "unit": "%"}, {"measurement": "in vitro complex I activity relative to solvent control", "setting": "[4]; 0.0025 µM, single replicate", "value": "64.388% and 114.111% and 71.337%"}, {"measurement": "in vitro complex I activity relative to solvent control", "setting": "[4]; 0.005 µM, Mean", "value": 110.209, "unit": "%"}, {"measurement": "in vitro complex I activity relative to solvent control", "setting": "[4]; 0.005 µM, single replicate", "value": "99.329% and 145.962% and 85.335%"}, {"measurement": "in vitro complex I activity relative to solvent control", "setting": "[4]; 0.013 µM, Mean", "value": 102.008, "unit": "%"}, {"measurement": "in vitro complex I activity relative to solvent control", "setting": "[4]; 0.013 µM, single replicate", "value": "103.702% and 118.527% and 83.796%"}, {"measurement": "in vitro complex I activity relative to solvent control", "setting": "[4]; 0.025 µM, Mean", "value": 81.894, "unit": "%"}, {"measurement": "in vitro complex I activity relative to solvent control", "setting": "[4]; 0.025 µM, single replicate", "value": "82.152% and 107.849% and 55.682%"}, {"measurement": "in vitro complex I activity relative to solvent control", "setting": "[4]; 0.063 µM, Mean", "value": 53.328, "unit": "%"}, {"measurement": "in vitro complex I activity relative to solvent control", "setting": "[4]; 0.063 µM, single replicate", "value": "61.601% and 65.149% and 33.235%"}, {"measurement": "in vitro complex I activity relative to solvent control", "setting": "[4]; 0.125 µM, Mean", "value": 31.057, "unit": "%"}, {"measurement": "in vitro complex I activity relative to solvent control", "setting": "[4]; 0.125 µM, single replicate", "value": "37.073% and 51.097% and 5.000%"}, {"measurement": "in vitro complex I activity relative to solvent control", "setting": "[4]; 0.313 µM, Mean", "value": 8.632, "unit": "%"}, {"measurement": "in vitro complex I activity relative to solvent control", "setting": "[4]; 0.313 µM, single replicate", "value": "10.235% and 15.661% and 0.000%"}, {"measurement": "in vitro complex I activity relative to solvent control", "setting": "[4]; 0.625 µM, Mean", "value": 5.779, "unit": "%"}, {"measurement": "in vitro complex I activity relative to solvent control", "setting": "[4]; 0.625 µM, single replicate", "value": "0.000% and 9.493% and 7.843%"}, {"measurement": "in vitro complex I activity relative to solvent control", "setting": "[4]; 1.5 µM, Mean", "value": 4.860, "unit": "%"}, {"measurement": "in vitro complex I activity relative to solvent control", "setting": "[4]; 1.5 µM, single replicate", "value": "0.000% and 2.483% and 12.098%"}, {"measurement": "in vitro complex I activity relative to solvent control", "setting": "[4]; 3 µM, Mean", "value": 2.448, "unit": "%"}, {"measurement": "in vitro complex I activity relative to solvent control", "setting": "[4]; 3 µM, single replicate", "value": "0.000% and 7.344%"}, {"measurement": "in vitro complex I activity relative to solvent control", "setting": "[4]; 15 µM, Mean", "value": 12.306, "unit": "%"}, {"measurement": "in vitro complex I activity relative to solvent control", "setting": "[4]; 15 µM, single replicate", "value": "12.065% and 18.802% and 6.051%"}, {"measurement": "in vitro complex I activity relative to solvent control", "setting": "[4]; 37.5 µM, Mean", "value": 7.732, "unit": "%"}, {"measurement": "in vitro complex I activity relative to solvent control", "setting": "[4]; 37.5 µM, single replicate", "value": "0.065% and 16.547% and 6.585%"}, {"measurement": "in vitro complex I activity relative to solvent control", "setting": "[4]; 75 µM, Mean", "value": 3.784, "unit": "%"}, {"measurement": "in vitro complex I activity relative to solvent control", "setting": "[4]; 75 µM, single replicate", "value": "0.000% and 11.350%"}, {"measurement": "IC50", "setting": "[4]", "value": 70.3, "unit": "nM"}]}]}
